{
  "source": "patent US20240230620A1",
  "about": "“CURRENT AND […]” (National Taiwan University, priority 2023, published 2024)",
  "key": {"[1]": {"system": "Gα subunit", "settings": "fluorescence", "protocol": "The intrinsic tryptophan in the switch-II region serves as a fluorescent probe for examining the activity of Ga subunit. In the AlF4^− dependent activation assay, the AlF4^− bound to GDP mimics the transition state of GTP hydrolysis, stimulating the conformational change of the switch-II region and enhancing the fluorescence quantum yields of intrinsic Trp. This principle was also applied to GDP/GTP auto-exchange, but it was conducted using of GTPγS, a non-hydrolyzable GTP analog. In the time-course of Trp fluorescence measurement, the excitation and emission wavelengths were 280 and 340 nm, respectively, and both slits are 10 nm. For AlF4^− dependent activation assay, 20 μL 20 μM Ga protein was first added into a cuvette filled with 1.5 mL buffer G without BME and PMSF at 50 s. Then 40 μL 500 mM NaF and 20 μL 10 mM AlCl3 were added simultaneously at 100 s. For GDP/GTP auto-exchange, the experiments were conducted as described above using 1 μM GTPγS instead of AlF4^−.\nThe effectiveness of Gα inactivation using EDTA was analyzed by fluorescence (FIG. 23(A))."}, "[2]": {"molecular_target": "T1, AtGPA1 (Arabidopsis thaliana, UniProt P18064)", "T1 sequence (P18064 1-383)": "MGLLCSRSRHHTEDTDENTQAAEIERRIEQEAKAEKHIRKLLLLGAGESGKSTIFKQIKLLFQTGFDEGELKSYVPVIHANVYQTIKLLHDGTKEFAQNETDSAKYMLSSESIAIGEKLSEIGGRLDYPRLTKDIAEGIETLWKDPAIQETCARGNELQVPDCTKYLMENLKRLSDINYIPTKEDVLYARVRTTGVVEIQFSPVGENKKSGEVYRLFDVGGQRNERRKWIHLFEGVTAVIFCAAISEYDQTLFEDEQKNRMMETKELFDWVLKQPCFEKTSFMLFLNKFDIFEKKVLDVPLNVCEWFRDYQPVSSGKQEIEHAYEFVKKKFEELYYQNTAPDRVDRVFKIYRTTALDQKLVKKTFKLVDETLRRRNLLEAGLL", "settings": "derived from radioactive GTPγS assay; read-out: KD of AtGPA1 and GTPγS, previous study; cited from earlier work"}, "[3]": {"molecular_target": "T1, AtGPA1", "experiment": "GTPγS saturation binding analysis of AtGPA1 (photocurrent and fluorescence)", "settings": "percent of maximum fitted to a hyperbola, preliminary test", "method": "The photo-induced-voltage-generating solution chamber was filled with 20 mg/mL HEBR solution in the dual chamber format. The sample to be tested was added to the sample chamber at a volume of 100-150 μL. The photo-induced-voltage-generating solution chamber was illuminated by a 10-Hz, 532-nm flash laser (Nd-YAG laser, 6 ns pulse, pump energy 21 J) via a central control unit (Raspberry Pi 400) to generate the alternating photocurrent. The data recording system was identical to steady-state photocurrent measurement. Each data was collected at a single trigger event. The laser was triggered at 0 s and stopped at 40 s with each 5 s pre-trigger and post-illumination. Then, the raw data were recorded in a .csv file and processed by the Python code. The processed data were exported to an excel file for further analysis.\nAfter the successful measurement of the interaction of Gα with its ligand, the present device was extended to measure the KD of Gα and its ligands. In preliminary test, the plant Arabidopsis thaliana Gα AtGPA1 and a non-hydrolyzable GTP analog GTPγS were adopted. […] The AtGPA1 was purified and analyzed the activity using the identical method in mammalian Gα purification.\nReferring to FIG. 24, to calculate the KD of AtGPA1 and GTPγS, both photocurrent and fluorescence were measured. […]"}},
  "note": "Where two headings read alike, the source gives them in different places.",
  "data": [
    {"molecule": "O=C(O)CN(CCN(CC(=O)O)CC(=O)O)CC(=O)O", "note": "[EDTA]", "values": [
      {"measurement": "Gα subunit inactivation", "setting": "[1]; 20 μM Gα subunit at 100 mM EDTA", "result": "almost inactivated"},
      {"measurement": "reduction of Gα subunit activity", "setting": "[1]; 20 μM Gα subunit in 10 mM EDTA", "result": "more than 60%"}
    ]},
    {"molecule": "Nc1nc2c(ncn2[C@@H]2O[C@H](COP(=O)(O)OP(=O)(O)OP(O)(O)=S)[C@@H](O)[C@H]2O)c(=O)[nH]1", "note": "[GTPγS]", "values": [
      {"measurement": "Kd", "setting": "[2]", "result": 0.8, "unit": "nM"},
      {"measurement": "Kd", "setting": "[3]", "result": "~1.5", "unit": "nM"}
    ]}
  ]
}
